In US5338684A, “Stable aqueous FK506 standards” (Abbott Laboratories, priority 1993, dated 1994):

What was measured:
[1] = assay type: physicochemical, human
Procedure: This example illustrates the utilization of blood cell fragments according to the invention to stabilize FK506 in an aqueous matrix. Human blood cells were lysed by sonication or by repetitive freeze-thaw cycles respectively. Lysis was judged complete by the absence of blood cells under microscopic examination. Except for the utilization of lysed human blood cells instead of whole blood cells, the FK506 standards were prepared in the same manner as in Example 1 above.

[2] = assay type: physicochemical
Procedure: FK506 was spiked into plasma and serum and the stability at 37 degrees Celsius was evaluated as for human blood and the synthetic matrix above. The plasma contained sufficient EDTA as anti-coagulant to prevent coagulation.
Comparative plasma and serum matrices were prepared by adding a stock standard of FK506 in methanol (10 micrograms FK506/ml) to the plasma and serum matrices to provide two initial concentrations of 41.8 ng/ml (high) and 18.4 ng/ml (low) for the plasma and two initial concentrations of 44.9 ng/ml (high) and 22.4 ng/ml (low) for the serum. As for the human blood and synthetic matrix above, the stability of these two different matrices was evaluated by placing the four different standards at 37 degrees Celsius and determining the concentration of FK506 present as a function of time.

[3] = assay type: physicochemical, human; remark: listed apart in the source
Source text: This example illustrates the utilization of human packed red blood cells (with EDTA as anticoagulant) and saline in an aqueous, FK506-containing composition of the invention. It also illustrates the enhanced stability of FK506 in this composition of the invention compared to the stability of FK506 in comparative serum and plasma compositions.
Human packed red blood cells (with sufficient EDTA added to prevent coagulation) were mixed in equal parts by volume with saline (0.9 percent by weight sodium chloride solution), human plasma or human serum. Three freeze-thaw cycles were done on each matrix combination to lyse the cells. The pH on each matrix was adjusted to pH 6.0 with 3 Molar (M) citric acid. FK506 standards were made in each matrix and stability at […] was evaluated as described above.

[4] = assay type: physicochemical, horse
Procedure: (§1) This example illustrates the suitability of non-human blood sources for a composition of the invention. In this example both sheep blood (non-lysed as in Example 1 above and containing the anti-coagulant citrate) and horse blood (lysed by freeze-thaw cycles as in Example 2 above and containing the anti-coagulant EDTA) were utilized. FK506 standards were made in each matrix and stability was evaluated at 37 degrees Celsius as described above.

[5] = assay type: physicochemical, sheep
Procedure: as §1

[6] = assay type: physicochemical; remark: listed apart in the source
Source text: The stability of the composition can be determined by measuring the decrease in the measured amount of FK506 in the aqueous composition with time. […] In a composition of the invention useful as a standard for a diagnostic assay, generally the amount of FK506 initially present in the aqueous composition maintained at a temperature of 37 degrees Celsius will decrease over a period of 7 days by less than 20 percent by weight, and typically by less than 5 percent by weight

[7] = system: monoclonal antibody directed against FK506 (Fujisawa clone #1-60-46); assay: Microparticle capture enzyme immunoassay (MEIA) for FK506, competitive with FK506-alkaline phosphatase conjugate; assay type: binding; conditions: pH 6.0
Procedure: In general an analyte such as FK506 is determined in an MEIA by quantifying the rate of fluorescence development when a fluorogenic substrate is converted by the action of an enzyme-labeled conjugate. MEIAs as run on the IMx® analyzer generally utilize a reagent pack containing microparticle reagent, an alkaline phosphatase conjugate, fluorogenic substrate and, optionally, a diluent buffer specific for the FK506 assay. Submicron microparticles coated with a capture molecule specific for FK506 being measured are used as the solid phase. […] The effective surface area of these polystyrene latex microparticles, which number in the millions, is several-fold greater than that of a 1/4 inch diameter polystyrene bead commonly used in other commercial immunoassays. Because of this large surface area and the very small diffusion distance between analyte and the capture molecules on the surface of the microparticles, the capture phase of the MEIA typically reaches equilibrium within several minutes, allowing excellent throughput.
Unlike homogeneous fluorescent polarization immunoassays, the heterogeneous MEIA requires a separation step. After incubation of the microparticles with specimen, the microparticles are separated from the reaction mixture by transferring it to an inert glass fiber matrix in the MEIA reaction cell. This glass fiber surface provides a precisely located mechanical support for the microparticles during the subsequent optical read phase of the assay. The microparticles and bound analyte adhere strongly to the glass fibers, while the remaining specimen components are washed through the pores of the matrix to an underlying absorbent blotter. Detection of the immune complex on the glass fiber matrix is accomplished using an alkaline phosphatase-labeled conjugate. Conjugate is either incubated with the specimen and microparticles in a typical one step IMx® MEIA or applied to the matrix after the initial wash step. It is contemplated that an MEIA for FK506 run on the IMx® analyzer can be configured either in a "sandwich" or competitive assay format. […]
In either configuration, the specifically bound alkaline phosphatase on the microparticles is detected by addition of a fluorogenic substrate, typically 4-methylumbelliferyl phosphate (4-MUP), to the matrix. […] The liberated 4-MU is detected by the IMx® MEIA optics assembly, a front surface fluorometer designed to detect fluorescence of low concentrations of 4-MU without interference by fluorescence of 4-MUP at 367 nanometers (nm). A system of lenses and optical filters focuses filtered light (365 nm wavelength) from a mercury arc lamp onto the surface of the matrix and focuses emitted fluorescence from 4-MU (448 nm wavelength) onto a photomultiplier tube. About 5% of the excitation light is detected by a photodiode, allowing normalization of the fluorescence data and generation of a control signal used by the lamp power supply to maintain the intensity of the excitation light within 5% over the useful life of the lamp. The instrument then uses linear regression analysis to convert the data from 8 successive determinations of 4-MU fluorescence to a rate, which rate is proportional to the concentration of alkaline phosphatase conjugate specifically bound to the microparticles, from which the concentration of FK506 in the sample can be determined. […]

[8] = assay type: physicochemical; remark: listed apart in the source
Source text: Whole blood has the undesirable characteristic of thickening at elevated temperatures. Thickened blood can be difficult or impossible to pipet which can make a blood matrix completely unsuitable as a standard for a diagnostic assay.
Whole blood (plus sufficient EDTA to prevent coagulation) was lysed by freeze-thaw cycles and diluted with saline so as to be at final saline concentrations of 10, 20 and 30 percent by volume. FK506 in methanol was spiked into the matrix to make standards and the stability was evaluated at 37 degrees Celsius as described above.

[9] = assay type: physicochemical, human; remark: listed apart in the source
Procedure: This example illustrates the preparation of an aqueous composition of the invention utilizing whole human blood containing the anticoagulant, ethylenediamine tetraacetic acid (EDTA). It also illustrates a comparison of the stability of FK506 in the aqueous composition of the invention with the stability of FK506 in a synthetic blood matrix (prepared by adding hemoglobin to human serum) and with the stability of FK506 in plasma and serum
A synthetic blood matrix was prepared by adding hemoglobin (10 grams/deciliter) to human serum. A stock standard of FK506 in methanol (10 micrograms FK506/ml) was spiked into this synthetic matrix to provide two initial concentrations of 32.2 nanograms FK506/ml (ng/ml)(high) and 7.5 ng/ml (low). A composition of the invention was prepared by adding the stock standard of FK506 in methanol (10 micrograms FK506/ml) into human whole blood (containing sufficient EDTA to prevent coagulation ) to provide two initial concentrations of 47.1 ng/ml (high) and 9.3 ng/ml (low). The stability of these two different matrices was evaluated by placing the four different standards at 37 degrees Celsius and determining the concentration of FK506 present as a function of time.

[10] = aqueous blood cell composition, 168 h

C=CC[C@@H]1/C=C(\C)C[C@H](C)C[C@H](OC)[C@H]2O[C@@](O)(C(=O)C(=O)N3CCCC[C@H]3C(=O)O[C@H](/C(C)=C/[C@@H]3CC[C@@H](O)[C@H](OC)C3)[C@H](C)[C@@H](O)CC1=O)[C@H](C)C[C@@H]2OC [FK506]
stability in lysed blood [1]: more stable at 45 degrees Celsius than FK506 standards in serum, plasma or synthetic blood at 37 degrees Celsius
stability in plasma [2]: very unstable in plasma and serum
stability in serum [2]: very unstable in plasma and serum
stability in packed red cell matrices [3]: more stable in any of them relative to serum, plasma or synthetic blood matrices
most stable matrix ([3]; saline vs plasma or serum dilution, 45 degrees Celsius): the most stable matrix was blood diluted with saline
stability in horse blood [4]: excellent stability
stability in sheep blood [5]: excellent stability
stability at acidic pH [6]: enhanced somewhat at acidic pH
stability in aqueous matrices [6]: unstable
decrease of the amount of FK506 initially present, generally [6, 10]: less than 20 percent by weight
decrease of the amount of FK506 initially present, typically [6, 10]: less than 5 percent by weight
Fluorescent Rate ([7]; 10 ng/ml FK506 in lysed human whole blood): 288
Fluorescent Rate ([7]; 20 ng/ml FK506 in lysed human whole blood): 197
Fluorescent Rate ([7]; 30 ng/ml FK506 in lysed human whole blood): 150
Fluorescent Rate ([7]; 50 ng/ml FK506 in lysed human whole blood): 111
Fluorescent Rate ([7]; 80 ng/ml FK506 in lysed human whole blood): 79
stability in saline-diluted lysed blood [8]: good stability
stability in blood vs synthetic matrix [9]: much more stable in blood than in the synthetic matrix
